Reference: patent publication US10829473B2, “Modulators of the cystic fibrosis transmembrane conductance regulator protein and methods of use” (AbbVie Overseas S.Á.R.L., priority 2017, dated 2020)
Like-named read-outs stand apart in the source and are kept apart here.

Target: T1, F508delCFTR (Homo sapiens, UniProt P13569, DEL508-508)
T1 construct: expressed in transfected cells; host or cells: CFBE41o- human lung derived epithelial cells (CFBE41o-F508delCFTR-HRP), doxycycline-inducible
Assay: Cell Surface Expression-Horse Radish Peroxidase (CSE-HRP) Assay;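 as to EC50 (with co-corrector): co-corrector chromenyl benzoic acid corrector at 2 or 3 µM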;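 as to Maximum % activity (without co-corrector): % of on-plate positive control chromenyl benzoic acid corrector at 2 or 3 µM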
Format: cell-based
Details: for Maximum % activity (with co-corrector) / Emax: maximum at any tested concentration; for Emax: read-out: Maximum % activity (without co-corrector)
Procedure, shortened: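 Corrector compounds were given as 8-point 3-fold series from 20 or 30 μM, with or without a 2 μM co-corrector, for 18-24 h at 33 °C. Surface HRP was read by luminol luminescence as % of positive control; variable-Hill-slope sigmoidal fitting gave EC50 from triplicate plates.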

[1] = test compound alone, without co-corrector, read-out: EC50 (without co-corrector)
[2] = with co-corrector, read-out: EC50 (with co-corrector)
[3] = test compound with co-corrector
[4] = test compound with co-corrector, read-out: EC50 (with co-corrector)
[5] = test compound without co-corrector
[6] = test compound without co-corrector, read-out: EC50 (without co-corrector)

T1 sequence (P13569 with tags, fused parts or gaps DEL508-508): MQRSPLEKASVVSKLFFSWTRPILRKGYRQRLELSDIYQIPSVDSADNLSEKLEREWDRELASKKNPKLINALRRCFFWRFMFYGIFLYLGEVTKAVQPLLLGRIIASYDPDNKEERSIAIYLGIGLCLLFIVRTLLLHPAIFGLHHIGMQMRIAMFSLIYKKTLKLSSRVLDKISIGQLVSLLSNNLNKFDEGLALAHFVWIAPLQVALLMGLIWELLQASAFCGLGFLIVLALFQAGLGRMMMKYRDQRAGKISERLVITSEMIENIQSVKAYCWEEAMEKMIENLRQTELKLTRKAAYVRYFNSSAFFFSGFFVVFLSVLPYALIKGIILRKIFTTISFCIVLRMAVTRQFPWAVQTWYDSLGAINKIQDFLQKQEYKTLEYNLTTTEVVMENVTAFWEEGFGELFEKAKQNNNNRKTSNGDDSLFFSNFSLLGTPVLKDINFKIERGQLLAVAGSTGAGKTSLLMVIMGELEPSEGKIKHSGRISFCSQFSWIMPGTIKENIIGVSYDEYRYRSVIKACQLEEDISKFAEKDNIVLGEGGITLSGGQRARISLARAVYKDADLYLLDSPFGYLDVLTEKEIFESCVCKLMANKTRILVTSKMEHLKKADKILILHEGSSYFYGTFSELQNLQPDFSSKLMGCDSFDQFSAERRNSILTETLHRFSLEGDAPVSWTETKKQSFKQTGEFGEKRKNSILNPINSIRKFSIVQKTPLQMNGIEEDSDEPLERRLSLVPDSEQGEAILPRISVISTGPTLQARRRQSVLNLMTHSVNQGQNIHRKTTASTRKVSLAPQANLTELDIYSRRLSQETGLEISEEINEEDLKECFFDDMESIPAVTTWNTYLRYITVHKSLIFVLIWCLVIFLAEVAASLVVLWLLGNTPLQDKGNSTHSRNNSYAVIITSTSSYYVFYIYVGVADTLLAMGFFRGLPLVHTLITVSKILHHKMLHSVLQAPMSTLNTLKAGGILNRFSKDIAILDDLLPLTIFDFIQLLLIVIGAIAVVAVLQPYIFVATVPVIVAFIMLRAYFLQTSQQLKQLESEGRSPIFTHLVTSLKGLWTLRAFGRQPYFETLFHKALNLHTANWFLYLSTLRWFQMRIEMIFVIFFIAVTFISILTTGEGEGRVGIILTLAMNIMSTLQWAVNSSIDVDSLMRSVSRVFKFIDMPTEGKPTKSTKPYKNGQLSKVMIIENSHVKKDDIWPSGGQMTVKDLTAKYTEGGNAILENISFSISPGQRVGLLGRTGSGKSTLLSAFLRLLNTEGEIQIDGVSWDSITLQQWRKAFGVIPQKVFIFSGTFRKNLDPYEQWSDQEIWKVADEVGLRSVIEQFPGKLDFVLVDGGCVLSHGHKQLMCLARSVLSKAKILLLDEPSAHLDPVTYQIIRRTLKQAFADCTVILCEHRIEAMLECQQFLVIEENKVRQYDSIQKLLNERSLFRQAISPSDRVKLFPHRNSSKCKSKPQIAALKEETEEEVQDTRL

| SMILES | EC50 [1] [µM] | Maximum % activity (with co-corrector) (with co-corrector) | EC50 [2] [µM] | Emax (without co-corrector) [%] | Maximum % activity (with co-corrector) [3] | EC50 [4] [µM] | Emax [5] [%] | EC50 [6] [µM] |
| --- | --- | --- | --- | --- | --- | --- | --- | --- |
| COc1ccc(C)c(C)c1C1(C(=O)NS(=O)(=O)c2cccc3nc(C)ccc23)CC1 [II-51] | < 3 | +++ (≥350) | < 3 | > 150 |  |  |  |  |
| CCn1nc(C2(C(=O)NS(=O)(=O)c3cccc4ccccc34)CC2)cc1C [II-5] | 3 to 10 | ++ (≥150 and <350) | 3 to 10 | < 50 |  |  |  |  |
| COCC1(c2cnc(OC(C)C)c(C3(C(=O)NS(=O)(=O)c4cccc5ccccc45)CC3)c2)CC1 [Example GI-119, 1-{5-[1-(methoxymethyl)cyclopropyl]-2-[(propan-2-yl)oxy]pyridin-3-yl}-N-(naphthalene-1-sulfonyl)cyclopropane-1-carboxamide] |  |  |  |  | +++ (≥350) | < 3 | > 150 | < 3 |
| CCOc1ccc(C(C)(C)OC)cc1C1(C(=O)NS(=O)(=O)c2cccc3nc(C)ccc23)CC1 [Example I-104, 1-[2-ethoxy-5-(2-methoxypropan-2-yl)phenyl]-N-(2-methylquinoline-5-sulfonyl)cyclopropane-1-carboxamide] | < 3 | +++ (≥350) | < 3 | > 150 |  |  |  |  |
| COc1ncc(C2CCC2)cc1C1(C(=O)NS(=O)(=O)c2cccc3nc(C)ccc23)CC1 [Example I-3, 1-(5-cyclobutyl-2-methoxypyridin-3-yl)-N-(2-methylquinoline-5-sulfonyl)cyclopropane-1-carboxamide] | < 3 | +++ (≥350) | < 3 | > 150 |  |  |  |  |
| CC(C)Oc1cnc(C2CCC2)cc1C1(C(=O)NS(=O)(=O)c2cccc3[nH]ccc23)CC1 [Example GI-27, 1-{2-cyclobutyl-5-[(propan-2-yl)oxy]pyridin-4-yl}-N-(1H-indole-4-sulfonyl)cyclopropane-1-carboxamide] | 3 to 10 | +++ (≥350) | < 3 | > 150 |  |  |  |  |
| CCc1cnc(OCCOC)c(C2(C(=O)NS(=O)(=O)c3cccc4nc(C)ccc34)CC2)c1 [GII-56, 1-[5-ethyl-2-(2-methoxyethoxy)pyridin-3-yl]-N-(2-methylquinoline-5-sulfonyl)cyclopropane-1-carboxamide] |  |  |  |  | +++ (≥350) | 3 to 10 | > 150 | 3 to 10 |
| Cc1ccc(OC2COC2)c(C2(C(=O)NS(=O)(=O)c3cccc4nc(C)ccc34)CC2)c1 [Example I-106, 1-{5-methyl-2-[(oxetan-3-yl)oxy]phenyl}-N-(2-methylquinoline-5-sulfonyl)cyclopropane-1-carboxamide] | 3 to 10 | +++ (≥350) | < 3 | > 150 |  |  |  |  |
| COc1ccc(C(F)(F)F)cc1C1(C(=O)NS(=O)(=O)c2cccc3c2CCCN3)CC1 [II-28] | < 3 | +++ (≥350) | < 3 | > 150 |  |  |  |  |

Second part, the compound after the results:

| EC50 [1] [µM] | Maximum % activity (with co-corrector) (with co-corrector) | EC50 [2] [µM] | Emax (without co-corrector) [%] | Maximum % activity (with co-corrector) [3] | EC50 [4] [µM] | Emax [5] [%] | EC50 [6] [µM] | SMILES |
| --- | --- | --- | --- | --- | --- | --- | --- | --- |
| > 10 | + (<150) | > 10 | < 50 |  |  |  |  | CCCS(=O)(=O)NC(=O)C1(c2cccc(C)c2)CCOCC1 [Example III-120, 4-(3-methylphenyl)-N-(propane-1-sulfonyl)oxane-4-carboxamide] |
| > 10 | + (<150) | > 10 | < 50 |  |  |  |  | O=C1Cc2cc(S(=O)(=O)NC(=O)C3(c4cccc(Cl)c4)CC3)ccc2N1 [Example III-75, 1-(3-chlorophenyl)-N-(2-oxo-2,3-dihydro-1H-indole-5-sulfonyl)cyclopropane-1-carboxamide] |
| < 3 | +++ (≥350) | < 3 | > 150 |  |  |  |  | CCc1cccc(OC)c1C1(C(=O)NS(=O)(=O)c2cccc3[nH]ncc23)CC1 [Example III-132, 1-(2-ethyl-6-methoxyphenyl)-N-(lH-indazole-4-sulfonyl)cyclopropane-1-carboxamide] |
